Assay results reported in patent publication US20220062240A1, “METHODS OF TREATING CANCER USING A CLK INHIBITOR” (BioSplice Therapeutics, Inc., priority 2018, published 2022).
Where two headings read alike, the source gives them in different places. Each block holds one compound with its values, some of them ahead of it.

Key:
[1] = tested on: ovarian cancer (4 cell lines); assay: CellTiter-Glo Viability Assay, ovarian cancer; format: cell-based; conditions: Homo sapiens, inhibition of cancer cell proliferation
[2] = tested on: liver cancer (3 cell lines); assay: CellTiter-Glo Viability Assay, liver cancer; format: cell-based; conditions: Homo sapiens, inhibition of cancer cell proliferation
[3] = tested on: MDA-MB-231-Luc; assay: CellTiter-Glo Viability Assay, breast cancer; format: cell-based; conditions: Homo sapiens, 96 h; MDA-MB-231-Luc, breast cancer, four days; read-out: EC50
[4] = tested on: DU4475; assay: CellTiter-Glo Viability Assay, breast cancer; format: cell-based; conditions: Homo sapiens, DU-4475, 96 h; DU4475, breast cancer, four days; read-out: EC50
[5] = tested on: ZR-75-1; assay: CellTiter-Glo Viability Assay, breast cancer; format: cell-based; conditions: Homo sapiens, 96 h; ZR-75-1, breast cancer, four days; read-out: EC50
[6] = tested on: MCF7; assay: CellTiter-Glo Viability Assay, breast cancer; format: cell-based; conditions: Homo sapiens, 96 h; MCF7, breast cancer, four days; read-out: EC50
[7] = tested on: CAMA1; assay: CellTiter-Glo Viability Assay, breast cancer; format: cell-based; conditions: Homo sapiens, CAMA-1, 96 h; CAMA1, breast cancer, four days; read-out: EC50
[8] = tested on: BT-549; assay: CellTiter-Glo Viability Assay, breast cancer; format: cell-based; conditions: Homo sapiens, 96 h; BT-549, breast cancer, four days; read-out: EC50
[9] = tested on: HCC1599; assay: CellTiter-Glo Viability Assay, breast cancer; format: cell-based; conditions: Homo sapiens, 96 h; HCC1599, breast cancer, four days; read-out: EC50
[10] = tested on: T47D; assay: CellTiter-Glo Viability Assay, breast cancer; format: cell-based; conditions: Homo sapiens, 96 h, breast cancer, four days, read-out: EC50
[11] = tested on: prostate cancer (5 cell lines); assay: CellTiter-Glo Viability Assay, prostate cancer; format: cell-based; conditions: Homo sapiens
[12] = tested on: haematopoietic & lymphoid tumors (13 cell lines); assay: CellTiter-Glo Viability Assay, haematopoietic & lymphoid tumors; format: cell-based; conditions: Homo sapiens, inhibition of cancer cell proliferation
[13] = tested on: colorectal cancer (6 cell lines); assay: CellTiter-Glo Viability Assay, colorectal cancer; format: cell-based; conditions: Homo sapiens, inhibition of cancer cell proliferation
[14] = tested on: lung cancer (4 cell lines); assay: CellTiter-Glo Viability Assay, lung cancer; format: cell-based; conditions: Homo sapiens, inhibition of cancer cell proliferation
[15] = target: T1, CLK2 (Homo sapiens, UniProt P49760); assay: CLK2 kinase activity assay (Z-lyte, Ser/Thr 6 peptide); format: biochemical; conditions: recombinant CLK2 kinase, ATP 60 μM; read-out: EC50
T1 construct: purchased Thermo Fisher (Life Technologies), Z'-LYTE Kinase Assay Kits
T1 sequence (P49760 whole entry): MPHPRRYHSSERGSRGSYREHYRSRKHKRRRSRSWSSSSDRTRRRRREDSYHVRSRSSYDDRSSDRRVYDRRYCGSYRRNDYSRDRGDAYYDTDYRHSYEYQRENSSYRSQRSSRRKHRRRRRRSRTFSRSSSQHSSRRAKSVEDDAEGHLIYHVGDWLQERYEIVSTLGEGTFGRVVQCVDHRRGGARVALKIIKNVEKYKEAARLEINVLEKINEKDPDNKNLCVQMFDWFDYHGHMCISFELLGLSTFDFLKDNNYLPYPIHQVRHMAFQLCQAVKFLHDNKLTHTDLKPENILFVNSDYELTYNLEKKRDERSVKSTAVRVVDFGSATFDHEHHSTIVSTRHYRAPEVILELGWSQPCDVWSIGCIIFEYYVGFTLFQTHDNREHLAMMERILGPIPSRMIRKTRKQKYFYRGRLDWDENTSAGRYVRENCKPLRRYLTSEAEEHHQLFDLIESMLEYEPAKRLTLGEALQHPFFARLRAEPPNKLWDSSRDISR
Method: All reactions were performed in duplicate.

[16] = tested on: pancreatic cancer (8 cell lines); assay: CellTiter-Glo Viability Assay, pancreatic cancer; format: cell-based; conditions: Homo sapiens, inhibition of cancer cell proliferation
[17] = tested on: all 50 cell lines; assay: CellTiter-Glo Viability Assay, average across all cell lines; format: cell-based; conditions: Homo sapiens; across all 50 cell lines; read-out: average EC50 for inhibition of cancer cell proliferation
Method in brief: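 Proliferation of a multi-tissue human cancer line panel is assessed over four days at 37° C and 5% CO2, seeding 300-3,000 cells/well. Viability is quantified by CellTiter-Glo luminescence, and EC50 values are calculated.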

[18] = PA-1, PA1 cell line, read-out: Ovarian cancer, EC50 (μM) PA1
[19] = TOV112D, TOV-112D cell line, read-out: Ovarian cancer, EC50 (μM) TOV-112D
[20] = OV-90 cell line, read-out: Ovarian cancer, EC50 (μM) OV-90
[21] = OVCAR-3 cell line, read-out: Ovarian cancer, EC50 (μM) OVCAR-3
[22] = SNU-398, SNU398 cell line, read-out: Liver cancer, EC50 SNU398
[23] = HEPG2 cell line, read-out: Liver cancer, EC50 HEPG2
[24] = PLC/PRF/5 cell line, read-out: Liver cancer, EC50 PLC/PRF/5
[25] = DU-145, read-out: Prostate cancer EC50 Du-145
[26] = PC-3, PC3 cell line, inhibition of cancer cell proliferation, read-out: Prostate cancer EC50 PC3
[27] = 22Rv1 cell line, inhibition of cancer cell proliferation, read-out: Prostate cancer EC50 22Rv1
[28] = LNCap clone FGC cell line, inhibition of cancer cell proliferation, read-out: Prostate cancer EC50 LNCap clone FGC
[29] = VCaP (Sigma) cell line, inhibition of cancer cell proliferation, read-out: Prostate cancer EC50 VCaP (Sigma)
[30] = DND41, DND-41 cell line, read-out: Haematopoietic & Lymphoid tumors, EC50 (μM) DND-41
[31] = MV4-11, MV-4-11 cell line, read-out: Haematopoietic & Lymphoid tumors, EC50 (μM) MV-4-11
[32] = Rec1, REC-1 cell line, read-out: Haematopoietic & Lymphoid tumors, EC50 (μM) REC-1
[33] = SU-DHL-4, SUDHL4 cell line, read-out: Haematopoietic & Lymphoid tumors, EC50 (μM) SUDHL4
[34] = HL-60 cell line, read-out: Haematopoietic & Lymphoid tumors, EC50 (μM) HL-60
[35] = JM1 cell line, read-out: Haematopoietic & Lymphoid tumors, EC50 (μM) JM1
[36] = JURKAT, Clone E6-1 cell line, read-out: Haematopoietic & Lymphoid tumors, EC50 (μM) JURKAT, Clone E6-1
[37] = JeKo-1 cell line, read-out: Haematopoietic & Lymphoid tumors, EC50 (μM) JeKo-1
[38] = KASUMI-1 cell line, read-out: Haematopoietic & Lymphoid tumors, EC50 (μM) KASUMI-1
[39] = Loucy cell line, read-out: Haematopoietic & Lymphoid tumors, EC50 (μM) Loucy
[40] = MOLT-4 cell line, read-out: Haematopoietic & Lymphoid tumors, EC50 (μM) MOLT-4
[41] = TF-1 cell line, read-out: Haematopoietic & Lymphoid tumors, EC50 (μM) TF-1
[42] = TOLEDO cell line, read-out: Haematopoietic & Lymphoid tumors, EC50 (μM) TOLEDO
[43] = HCT-116, HCT116 cell line, read-out: Colorectal cancer, EC50 (μM) HCT116
[44] = HT-29, HT29 cell line, read-out: Colorectal cancer, EC50 (μM) HT29
[45] = SW-620, SW620 cell line, read-out: Colorectal cancer, EC50 (μM) SW620
[46] = DLD-1 cell line, read-out: Colorectal cancer, EC50 (μM) DLD-1
[47] = SW48 cell line, read-out: Colorectal cancer, EC50 (μM) SW48
[48] = A-427, A427 cell line, read-out: Lung cancer, EC50 (μM) A427
[49] = HCC78, HCC-78 cell line, read-out: Lung cancer, EC50 (μM) HCC-78
[50] = NCI-H460 cell line, read-out: Lung cancer, EC50 (μM) NCI-H460
[51] = NCI-H522 cell line, read-out: Lung cancer, EC50 (μM) NCI-H522
[52] = BXPC-3, BxPC3 cell line, read-out: Pancreatic cancer, EC50 BxPC3
[53] = CAPAN-1, Capan1 cell line, read-out: Pancreatic cancer, EC50 Capan1
[54] = Capan-2, Capan2 cell line, read-out: Pancreatic cancer, EC50 Capan2
[55] = MIA PaCa-2 cell line, read-out: Pancreatic cancer, EC50 MIA PaCa-2
[56] = PANC 05.04 cell line, read-out: Pancreatic cancer, EC50 PANC 05.04
[57] = PANC-1 cell line, read-out: Pancreatic cancer, EC50 PANC-1
[58] = UPAFII cell line, read-out: Pancreatic cancer, EC50 UPAFII

- EC50 [1, 18]: 5.95 µM
- EC50 [1, 19]: 1.55 µM
- EC50 [1, 20]: > 10 µM
- EC50 [1, 21]: 2.54 µM
- EC50 [2, 22]: 2.04 µM
- EC50 [2, 23]: 3.62 µM
- EC50 [2, 24]: 9.9 µM
- EC50 [3]: 6.79 µM
- EC50 [4]: 1.02 µM
- EC50 [5]: 6.79 µM
- EC50 [6]: > 10 µM
- EC50 [7]: 7.76 µM
- EC50 [8]: 3.76 µM
- EC50 [9]: 0.24 µM
- EC50 [10]: 0.633 µM
- EC50 [11, 25]: 9.09 µM
- EC50 [11, 26]: 9.34 µM
- EC50 [11, 27]: 1.06 µM
- EC50 [11, 28]: 8.65 µM
- EC50 [11, 29]: 2.02 µM
- EC50 [12, 30]: 4.78 µM
- EC50 [12, 31]: 0.273 µM
- EC50 [12, 32]: 1.26 µM
- EC50 [12, 33]: 2.56 µM
- EC50 [12, 34]: 4.59 µM
- EC50 [12, 35]: 0.765 µM
- EC50 [12, 36]: 3.73 µM
- EC50 [12, 37]: 0.706 µM
- EC50 [12, 38]: 0.479 µM
- EC50 [12, 39]: 1.96 µM
- EC50 [12, 40]: 5.56 µM
- EC50 [12, 41]: 3.59 µM
- EC50 [12, 42]: 0.886 µM
- EC50 [13, 43]: 1.88 µM
- EC50 [13, 44]: 5.48 µM
- EC50 [13, 45]: 1.36 µM
- EC50 [13, 46]: 1.35 µM
- EC50 [13, 47]: 0.577 µM
- EC50 ([13]; SW480 cell line, read-out: Colorectal cancer, EC50 (μM) SW480): 3.5 µM
- EC50 [14, 48]: 4.12 µM
- EC50 [14, 49]: > 10 µM
- EC50 [14, 50]: 5.17 µM
- EC50 [14, 51]: 1.42 µM
- EC50 [15]: 0.0037 µM
- EC50 [16, 52]: 9.04 µM
- EC50 [16, 53]: > 10 µM
- EC50 [16, 54]: > 10 µM
- EC50 [16, 55]: 2.02 µM
- EC50 [16, 56]: > 10 µM
- EC50 [16, 57]: > 10 µM
- EC50 [16, 58]: 6.88 µM
SMILES: CN1CCC(Oc2ccc(NC(=O)c3n[nH]cc3/C=C/c3cccnc3)cn2)CC1 [Compound 93]
- EC50 [17]: 4.53 µM

- EC50 [1, 18]: > 10 µM
- EC50 [1, 19]: > 10 µM
- EC50 [1, 20]: > 10 µM
- EC50 [1, 21]: 0.554 µM
- EC50 [2, 22]: 0.473 µM
- EC50 [2, 23]: > 10 µM
- EC50 [2, 24]: > 10 µM
- EC50 [3]: > 10 µM
- EC50 [4]: 0.387 µM
- EC50 [5]: > 10 µM
- EC50 [6]: > 10 µM
- EC50 [7]: > 10 µM
- EC50 [8]: > 10 µM
- EC50 [9]: 0.026 µM
- EC50 [10]: > 10 µM
- EC50 [11, 25]: > 10 µM
- EC50 [11, 26]: > 10 µM
- EC50 [11, 27]: 7.43 µM
- EC50 [11, 28]: > 10 µM
- EC50 [11, 29]: > 10 µM
- EC50 [12, 30]: 7.8 µM
- EC50 [12, 31]: 0.19 µM
- EC50 [12, 32]: > 10 µM
- EC50 [12, 33]: > 10 µM
- EC50 [12, 34]: > 10 µM
- EC50 [12, 35]: > 10 µM
- EC50 [12, 36]: > 10 µM
- EC50 [12, 37]: 0.452 µM
- EC50 [12, 38]: > 10 µM
- EC50 [12, 39]: > 10 µM
- EC50 [12, 40]: > 10 µM
- EC50 [12, 41]: > 10 µM
- EC50 [12, 42]: > 10 µM
- EC50 [13, 43]: > 10 µM
- EC50 [13, 44]: > 10 µM
- EC50 [13, 45]: > 10 µM
- EC50 [13, 46]: > 10 µM
- EC50 [13, 47]: 0.393 µM
- EC50 [14, 48]: > 10 µM
- EC50 [14, 49]: > 10 µM
- EC50 [14, 50]: > 10 µM
- EC50 [14, 51]: > 10 µM
- EC50 [15]: 0.0053 µM
- EC50 [16, 52]: > 10 µM
- EC50 [16, 53]: > 10 µM
- EC50 [16, 54]: > 10 µM
- EC50 [16, 55]: > 10 µM
- EC50 [16, 56]: > 10 µM
- EC50 [16, 57]: > 10 µM
- EC50 [16, 58]: > 10 µM
SMILES: O=C1CCc2cccc(c2)-c2cncc(c2)NC(=O)c2n[nH]c3ccc(cc23)-c2cncc(c2)CN1 [Compound 62]
- EC50 [17]: 8.55 µM
